Laboratory results taken from patent US20230165865A1, “HETEROARYLDIHYDROPYRIMIDINE DERIVATIVES AND METHODS OF TREATING HEPATITIS B INFECTIONS” (Janssen Pharmaceutica NV, priority 2018, published 2023).
Where two headings read alike, the source gives them in different places.

Columns and labels:
[1] = tested on: HBV; experiment: Anti-viral assay in HepG2.2.15 cells: anti-HBV activity, HBV DNA in culture medium by qPCR; type: cell-based
Description: (§1) HepG2.2.15 (the HepG2.2.15 cell line can be produced by transfection of the HepG2 cell line as described in Sells, Chen, and Acs 1987 (Proc. Natl. Acad. Sci. USA 84: 1005-1009), and the HepG2 cell line is available from ATCC® under number HB-8065™)
(§2) HepG2.2.15 cells were plated into 96-well plate in 2% FBS culture medium at the density of 40,000 cells/well and 5,000cells/well for HBV inhibitory activity and cytotoxicity determination, respectively. After incubation at 37° C., 5% CO2 overnight, cells were treated with medium containing compounds for 6 days with medium and compounds refreshed after 3 days of treatment. Each compound was tested in a 1:3 serial dilutions at 8 different concentrations in triplicate. The highest concentration of the compounds was 10 uM or 1 uM for anti-HBV activity assay and 100 uM for cytotoxicity determination.
The change of HBV DNA level induced by the compounds was assessed by quantitative real-time polymerase chain reaction (qPCR). Briefly, the HBV DNA in the culture medium was extracted using QIAamp 96 DNA Blood Kit according to the manual and then quantified by real-time PCR assay using the primers and probe in the table 1 below.
(§3) EC50 and CC50 values are calculated by the […] PRISM software.

[2] = Cytotoxicity determination in HepG2.2.15 cells (CCK-8 assay); type: cell-based; conditions: human, 6 days treatment, CCK-8, highest concentration 100 uM
Description: as §1, §2
Cell viability was determined by CCK-8 assay. After 6 days of compounds treatment, 20 μl CCK-8 reagents were added to each well of cytotoxicity assay plates. Cell plates were incubated at 37° C., 5% CO2 for 2.5 h. The absorbance at 450 nm wavelength and the absorbance at 630 nm wavelength as reference was measured.
as §3

[3] = Hepatitis B virus, HepG2.2.15, 144 h, HepG2.2.15 cells, 6 days treatment, HBV DNA by qPCR, read-out: EC50
[4] = HepG2.2.15 cells, 6 days treatment, HBV DNA by qPCR, read-out: EC50

SMILES	EC50 [1, 3] [nM]	CC50 at 6 days [2] [nM]	EC50 ([1]; Hepatitis B virus, HepG2.2.15, 144 h) [nM]	EC50 [1, 4] [nM]
CCOC(=O)C1=C(CN2CCN3C(=S)N(CCC(C)(C)C(=O)O)CC3C2)NC(c2nccs2)=N[C@H]1c1cccc(F)c1C (stereo partly drawn) [Compound 28, 4-(7-(((S)-5-(ethoxycarbonyl)-6-(3-fluoro-2-methylphenyl)-2-(thiazol-2-yl)-3,6-dihydropyrimidin-4-yl)methyl)-3-thioxohexahydroimidazo[1,5-a]pyrazin-2(3H)-yl)-2,2-dimethylbutanoic acid]	5.8	10900		
CCOC(=O)C1=C(CN2CCN3C(=S)N(CC(C)C(=O)O)C[C@@H]3C2)NC(c2nccs2)=N[C@H]1c1cccc(F)c1C (single isomer, unassigned) [Compound 27A]	4.8	23600		
CCOC(=O)C1=C(CN2CCN3C(=NC(C)=O)N(CC(C)(C)C(=O)O)CC3C2)NC(c2nccs2)=N[C@H]1c1cccc(F)c1C (stereo partly drawn) [Compound 8, (S)-3-(3-(Acetylimino)-7-((5-(ethoxycarbonyl)-6-(3-fluoro-2-methylphenyl)-2-(thiazol-2-yl)-3,6-dihydropyrimidin-4-yl)methyl)hexahydroimidazo[1,5-a]pyrazin-2(3H)-yl)-2,2-dimethylpropanoic acid]		> 100000	790	
CCOC(=O)C1=C(CN2CCN3C(=S)N(CC(C)(C)C(=O)O)CC3C2)NC(c2ncoc2C)=NC1c1cccc(F)c1C (single isomer, unassigned) [Compound 26A, 3-(7-((5-(Ethoxycarbonyl)-6-(3-fluoro-2-methylphenyl)-2-(5-methyloxazol-4-yl)-3,6-dihydropyrimidin-4-yl)methyl)-3-thioxohexahydroimidazo[1,5-a]pyrazin-2(3H)-yl)-2,2-dimethylpropanoic acid]	13.2	26200		
CCOC(=O)C1=C(CN2CCN3C(=S)N(C[C@@H](C)C(=O)O)C[C@@H]3C2)NC(c2ncoc2C)=NC1c1cccc(F)c1C (single isomer, unassigned) [Compound 32A, 3-(7-((5-(Ethoxycarbonyl)-6-(3-fluoro-2-methylphenyl)-2-(5-methyloxazol-4-yl)-3,6-dihydropyrimidin-4-yl)methyl)-3-thioxohexahydroimidazo[1,5-a]pyrazin-2(3H)-yl)-2-methylpropanoic acid]	24.9	41000		
CCOC(=O)C1=C(CN2CCN3C(=S)N(CC(C)(C)C(=O)O)C[C@@H]3C2)NC(c2nccs2)=N[C@H]1c1ccc(F)cc1Cl (single isomer, unassigned) [Compound 21A, 3-(7-((6-(2-chloro-4-fluorophenyl)-5-(ethoxycarbonyl)-2-(thiazol-2-yl)-3,6-dihydropyrimidin-4-yl)methyl)-3-thioxohexahydroimidazo[1,5-a]pyrazin-2(3H)-yl)-2,2-dimethylpropanoic acid]	6	15200		
COC(=O)C1=C(CN2CCN3C(=S)N(CC(C)(C)C(=O)O)CC3C2)NC(c2ncoc2C)=NC1c1cccc(F)c1C (single isomer, unassigned) [Compound 31A, 3-(7-((6-(3-Fluoro-2-methylphenyl)-5-(methoxycarbonyl)-2-(5-methyloxazol-4-yl)-3,6-dihydropyrimidin-4-yl)methyl)-3-thioxohexahydroimidazo[1,5-a]pyrazin-2(3H)-yl)-2,2-dimethylpropanoic acid]	15	43700		
COC(=O)C1=C(CN2CCN3C(=S)N(CC(C)(C)C(=O)O)C[C@@H]3C2)NC(c2ncoc2C)=N[C@H]1c1ccc(F)cc1Cl (single isomer, unassigned) [Compound 34A, 3-(7-((6-(2-Chloro-4-fluorophenyl)-5-(methoxycarbonyl)-2-(5-methyloxazol-4-yl)-3,6-dihydropyrimidin-4-yl)methyl)-3-thioxohexahydroimidazo[1,5-a]pyrazin-2(3H)-yl)-2,2-dimethylpropanoic acid]	7.9	47400		
CCOC(=O)C1=C(CN2CCN3C(=S)N(C)C[C@@H]3[C@H]2C(=O)O)NC(c2nccs2)=N[C@H]1c1cccc(F)c1C (single isomer, unassigned) [Compound 35A]		77000		47.9
CCOC(=O)C1=C(CN2CCN3C(=S)N(C)C[C@@H]3[C@H]2C(=O)O)NC(c2nccs2)=N[C@H]1c1cccc(F)c1Cl (single isomer, unassigned) [Compound 19B, (trans)-7-((6-(2-chloro-3-fluorophenyl)-5-(ethoxycarbonyl)-2-(thiazol-2-yl)-3,6-dihydropyrimidin-4-yl)methyl)-2-methyl-3-thioxooctahydro-imidazo[1,5-a]pyrazine-8-carboxylic acid]	1.8	51200		
CCOC(=O)C1=C(CN2CCN3C(=S)N(CC(C)(C)C(=O)O)CC3C2)NC(c2nccs2)=NC1c1cccc(F)c1Cl (single isomer, unassigned) [Compound 3A, 3-(7-((6-(2-chloro-3-fluorophenyl)-5-(ethoxycarbonyl)-2-(thiazol-2-yl)-3,6-dihydropyrimidin-4-yl)methyl)-3-thioxohexahydroimidazo[1,5-a]pyrazin-2(3H)-yl)-2,2-dimethylpropanoic acid]		25200		19
CCOC(=O)C1=C(CN2CCN3C(=S)N(CC(C)(C)C(=O)O)C[C@@H]3C2)NC(c2nccs2)=N[C@H]1c1ccc(C)cc1F (single isomer, unassigned) [Compound 25A, 3-(7-((5-(Ethoxycarbonyl)-6-(2-fluoro-4-methylphenyl)-2-(thiazol-2-yl)-3,6-dihydropyrimidin-4-yl)methyl)-3-thioxohexahydroimidazo[1,5-a]pyrazin-2(3H)-yl)-2,2-dimethylpropanoic acid]	91.6	31000		
CCOC(=O)C1=C(CN2CCN3C(=S)N(CC(C)(C)C(=O)O)C[C@@H]3C2)NC(c2nccs2)=N[C@H]1c1ccc(F)c(F)c1C (single isomer, unassigned) [Compound 15B, 3-(7-((6-(3,4-Difluoro-2-methylphenyl)-5-(ethoxycarbonyl)-2-(thiazol-2-yl)-3,6-dihydropyrimidin-4-yl)methyl)-3-thioxohexahydroimidazo[1,5-a]pyrazin-2(3H)-yl)-2,2-dimethylpropanoic acid]	300	45000		
CCOC(=O)C1=C(CN2CCN3C(=S)N(CC4(C(=O)O)CC4)CC3C2)NC(c2nccs2)=NC1c1cccc(F)c1Cl (centres unmarked) [Compound 5, 1-((7-((6-(2-Chloro-3-fluorophenyl)-5-(ethoxycarbonyl)-2-(thiazol-2-yl)-3,6-dihydropyrimidin-4-yl)methyl)-3-thioxohexahydroimidazo[1,5-a]pyrazin-2(3H)-yl)methyl)cyclopropanecarboxylic acid]	1.7	11800		
CCOC(=O)C1=C(CN2CCN3C(=CC#N)N(CC(C)(C)C(=O)O)CC3C2)NC(c2nccs2)=N[C@H]1c1cccc(F)c1C (stereo partly drawn) [Compound 7, 3-(3-(Cyanomethylene)-7-(((S)-5-(ethoxycarbonyl)-6-(3-fluoro-2-methylphenyl)-2-(thiazol-2-yl)-3,6-dihydropyrimidin-4-yl)methyl)hexahydroimidazo[1,5-a]pyrazin-2(3H)-yl)-2,2-dimethylpropanoic acid]	720	68700		
CCOC(=O)C1=C(CN2CCN3C(=S)N([C@@H]4CC[C@H](C(=O)O)C4)CC3C2)NC(c2nccs2)=N[C@H]1c1cccc(F)c1C (single isomer, unassigned) [Compound 24A]		15500		39.1
COC(=O)C1=C(CN2CCN3C(=S)N(CC(C)(C)C(=O)O)C[C@@H]3C2)NC(c2nccs2)=N[C@H]1c1ccc(F)cc1Br (single isomer, unassigned) [Compound 16B, 3-(7-((6-(2-Bromo-4-fluorophenyl)-5-(methoxycarbonyl)-2-(thiazol-2-yl)-3,6-dihydropyrimidin-4-yl)methyl)-3-thioxohexahydroimidazo[1,5-a]pyrazin-2(3H)-yl)-2,2-dimethylpropanoic acid]	808	29500		
COC(=O)C1=C(CN2CCN3C(=S)N(CC(C)(C)C(=O)O)CC3C2)NC(c2nccs2)=NC1c1ccc(F)c(F)c1Cl (single isomer, unassigned) [Compound 11A, 3-(7-((6-(2-Chloro-3,4-difluorophenyl)-5-(methoxycarbonyl)-2-(thiazol-2-yl)-3,6-dihydropyrimidin-4-yl)methyl)-3-thioxohexahydroimidazo[1,5-a]pyrazin-2(3H)-yl)-2,2-dimethylpropanoic acid]	1.9	16200		
CCOC(=O)C1=C(CN2CCN3C(=S)N(CC(C)(C)C(=O)O)CC3C2)NC(c2nccs2)=NC1c1ccc(F)c(F)c1Cl (centres unmarked) [Compound 14, 3-(7-((6-(2-Chloro-3,4-difluorophenyl)-5-(ethoxycarbonyl)-2-(thiazol-2-yl)-3,6-dihydropyrimidin-4-yl)methyl)-3-thioxohexahydroimidazo[1,5-a]pyrazin-2(3H)-yl)-2,2-dimethylpropanoic acid]	5.9	10600		
